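Assay format: 96-well plates, 48-hour exposure. Definition used: TGI = concentration required for complete inhibition of growth.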
Legend:
Experiment in all cases: inhibition of tumour cell growth, NCI panel, 48 h
[1] = test system: A549 NSCLC
[2] = test system: HT29 colon
[3] = test system: IGROV1 ovarian
[4] = test system: SF-268 CNS
[5] = test system: HCT-15 colon
[6] = test system: SK-MEL-2 melanoma
[7] = test system: NCI/ADR-RES ovarian
[8] = test system: RXF 393 renal
[9] = test system: OVCAR-4 ovarian
[10] = test system: M14 melanoma
[11] = test system: HS 578T breast
[12] = test system: HOP-62 NSCLC
[13] = test system: COLO 205 colon
[14] = test system: LOX IMVI melanoma
[15] = test system: OVCAR-5 ovarian
[16] = test system: SNB-75 CNS
[17] = test system: CCRF-CEM leukemia
[18] = test system: HCC-2998 colon

SMILES	TGI [1]	TGI [2]	TGI [3]	TGI [4]	TGI [5]	TGI [6]	TGI [7]	TGI [8]	TGI [9]	TGI [10]	TGI [11]	TGI [12]	TGI [13]	TGI [14]	TGI [15]	TGI [16]	TGI [17]	TGI [18]
OC(c1cc2ccccc2[nH]1)C1(c2cccnc2)SCCCS1 (stereo not drawn)	> 100 µM	> 100 µM	> 100 µM	> 100 µM	> 100 µM	> 100 µM	> 100 µM	> 100 µM	> 100 µM	> 100 µM	> 100 µM	> 100 µM	> 100 µM	> 100 µM	> 100 µM	> 100 µM	–	–
N#CCOc1ccc(/C=C/C(=O)c2ccc(Cl)cc2)cc1	> 100 µM	> 100 µM	60.4 µM	> 100 µM	> 100 µM	–	48.5 µM	38.5 µM	> 100 µM	> 100 µM	50.9 µM	57.5 µM	–	37.5 µM	> 100 µM	37.2 µM	> 100 µM	98.8 µM
CO/C(=C/C(=O)C(Cl)(Cl)Cl)CC/C(=C\C(=O)C(Cl)(Cl)Cl)OC	> 100 µM	85.3 µM	35.8 µM	> 100 µM	73.1 µM	84.1 µM	> 100 µM	34.7 µM	51 µM	88.3 µM	> 100 µM	49.5 µM	> 100 µM	41.5 µM	> 100 µM	> 100 µM	> 100 µM	–
O=[N+]1ON=C(c2ccccc2)C1=C1C(c2c(-c3ccccc3)no[n+]2[O-])=NON1[O-]	> 100 µM	24.8 µM	> 100 µM	> 100 µM	–	–	> 100 µM	10.1 µM	9.79 µM	> 100 µM	> 100 µM	55.1 µM	25.4 µM	8.67 µM	> 100 µM	33.2 µM	> 100 µM	> 100 µM
O=C(COc1ccc(OCC(=O)NNC2=NC(c3cc(F)c(Cl)cc3Cl)CS2)c(Cl)c1)NNC1=NC(c2cc(F)c(Cl)cc2Cl)CS1 (stereo not drawn)	28.6 µM	59.3 µM	> 100 µM	–	36 µM	> 100 µM	> 100 µM	60.9 µM	40.4 µM	> 100 µM	48.7 µM	> 100 µM	> 100 µM	5.15 µM	> 100 µM	–	> 100 µM	–
COC1=CC(=O)c2c(cc(COP(=O)(OCC3OC(n4cc(F)c(=O)[nH]c4=O)CC3O)N(C)CCCCCl)n2C)C1=O (stereo not drawn)	6.27 µM	> 40.7 µM	23.7 µM	16.1 µM	> 86.4 µM	56.6 µM	> 40.6 µM	4.71 µM	> 34.8 µM	12.8 µM	2.64 µM	26.8 µM	> 39.8 µM	14.7 µM	41.1 µM	–	> 100 µM	–
CCN1C(=O)/C(=C2\SC(c3ccccc3)(c3ccccc3)c3ccccc32)SC1=S	> 100 µM	> 100 µM	> 100 µM	> 100 µM	> 100 µM	–	> 100 µM	> 100 µM	> 100 µM	> 100 µM	> 100 µM	68.1 µM	> 100 µM	> 100 µM	> 100 µM	> 100 µM	> 100 µM	> 100 µM

From PubChem BioAssay (NCI)
